Legend:
[1] = test system: AD fruit flies (elav/Y; UAS-Aβ42/+; P35*H29.3); experiment: Pavlovian olfactory learning test in AD fruit flies (anti-senile dementia effect); assay type: in vivo; details: for PI (mean value), learning and memory index: AD flies (P35*H29.3) given drug, final concentration 100 μM, 50 μl, day 2 to day 8, immediate memory tested day 9, PI=0 no memory, PI=100 all remember; for anti-senile dementia effect (in words, from Table 1): AD flies, T test against AD flies without administration: P>0.05, P<0.05 or P<0.01; for anti-senile dementia effect compared with JKF-006, JKF-027 and JKF-011: transgenic AD fruit flies, comparison with compounds of WO2012/103282
Description: In all tests, w^1118 (isoCJ1) was used as a control gene system, referred to as the “2U”. Progeny fruit flies with disease carrying P35 and H29.3 were obtained by integration of fruit flies carrying elav-GAL4^c155 (referred to as P35) and fruit flies carrying Aβ42 (UAS-Aβ42; referred to as H29.3). The first generation of fruit flies obtained by hybridization was used for behavioral testing. Details as follows:
All the fruit flies were reared in an environment with a temperature of 24° C., relative humidity of 40% RH. On the first day, newborn male 2U*H29.3 fruit flies and male AD fruit flies were picked out and put into glass bottles (there were about 120 fruit flies in each bottle). During administration period, these fruit flies were placed in an environment with a temperature of 28° C., relative humidity of 42% RH. From the second day to the eighth day, the fruit flies were transferred into new glass bottles 4 hours later after administration. All the fruit flies were placed in an environment with a temperature of 28° C., relative humidity of 42% RH until 1 hour before Pavlovian olfactory learning test.
On the first day of eclosion dispensation of drugs was conducted, the second day administration was carried out. The respective initial amount of compounds JK-01A, JK-03A, JK-05A, JK-06A and JK-07A was 10 mg, and the final concentration was 100 μM. Each group had two glass bottles of flies which were administered 50 μl within seven days (from the second day to the eighth day). During administration period, since some fruit flies died naturally or for other causes, about 100 flies were remained in each bottle when Pavlovian olfactory test was conducted on the ninth day.
The fruit flies were placed on the automatic training device for training. In training, a group of about 100 flies first contacted with one kind of odor (octanol or methyl cyclohexanol) accompanied by electric shocks (an electric shock of 60 V for 3.5 s at 1.5-s intervals) for 60 s, rested at 45-s intervals, and then contacted with another kind of odor (methyl cyclohexanol or octanol) without electric shocks for 60 s. To test the “immediate memory” (also called “learning”), flies after the training were immediately sent to the T-maze choice point, and allowed to choose between two kinds of odor, the learning and memory index PI (Performance index) in every test was calculated according to the number of flies choosing each kind of odor. PI=0 represented 50:50, meaning that fruit flies could not remember the odor accompanied by electric shocks, PI=100 represented that 100% of the flies remembered the odor accompanied by electric shocks. Learning test was carried out in a darkroom with a temperature of 25° C., relative humidity of 70% RH. The fruit flies entered the darkroom to be familiar with the environment 1 hour before test.
The test data was analyzed and plotted by employing GraphPad Prism.
In the activity test, the olfactory short-term memory impairment tests of healthy flies with the same genetic background and without administration, AD flies without administration, AD flies administrated positive or negative control drugs and AD flies administrated test drugs were carried out at the same time, their learning and memory indexes were calculated, and the learning and memory index of AD flies administrated test drugs was compared with those of healthy flies with the same genetic background, AD flies, AD flies administrated positive or negative control drugs to evaluate the anti-senile dementia effect of test compounds. A relatively higher learning and memory index of AD flies administrated test drugs represented a stronger anti-senile dementia effect of test compounds. […]

ICR mice = experiment: Preliminary acute toxicity test; assay type: in vivo; details: given twice 3 hours apart, 14 days observation
Description: Method: in the acute toxicity test, ICR mice were used and divided into six groups for administration, with 10 mice in each group and half male and half female. […] The control group was administrated the same volume of vehicle. Observation was conducted for 14 consecutive days after administration.

| SMILES | PI (mean value), learning and memory index [1] | anti-senile dementia effect (in words, from Table 1) [1] | Test result (acute toxicity) (ICR mice; 5000 mg/kg/d p.o.) | anti-senile dementia effect compared with JKF-006, JKF-027 and JKF-011 [1] | Test result (acute toxicity) (ICR mice; 4000 mg/kg/d p.o.) | Test result (acute toxicity) (ICR mice; 6000 mg/kg/d p.o.) |
| --- | --- | --- | --- | --- | --- | --- |
| N#C/C(=C\c1ccc(NCCOCCO)o1)C(=O)NCCc1c[nH]c2ccccc12 [JK-05A, 2-cyano-N-[2-(1H-3-indolyl)ethyl]-3-{5-[2-(2-hydroxyethoxy)ethylamino]-2-furyl}-2-acrylamide] | 40 | equivalent anti-senile dementia effects | No death, | – | – | – |
| N#CC(=Cc1ccc(COCCOCCOCCO)o1)C(=O)NCCc1c[nH]c2ccccc12 [JK-07A, 2-cyano-N-[2-(1H-3-indolyl)ethyl]-3-[5-(1,4,7,10-tetraoxa-undecane-11-yl)furan-2-yl]-2-acrylamide] | 58 | significant anti-senile dementia effects | – | more significant anti-senile dementia effects | No death, | – |
| N#C/C(=C\c1ccc(-c2cc(C(=O)O)ccc2Cl)o1)C(=O)Nc1ccc(F)cc1 [JKF-006, reference compound] | 37 | equivalent anti-senile dementia effects | – | – | – | – |
| N#C/C(=C/c1ccc(CO)o1)C(=O)Nc1ccc(F)cc1 [JK-01A, 2-cyano-N-(4-fluorophenyl)-3-(5-hydroxymethyl-2-furyl)-2-acrylamide] | 65 | significant anti-senile dementia effects | – | more significant anti-senile dementia effects | No death, | – |
| C#Cc1cccc(Nc2ncnc3cc(OCCOC)c(OCCOC)cc23)c1 [Erlotinib, reference compound] | 48 | had anti-senile dementia effects | – | – | – | – |
| N#C/C(=C\c1ccc(N2CCOCC2)o1)C(=O)NCCc1c[nH]c2ccccc12 [JKF-027, reference compound] | 54 | had anti-senile dementia effects | – | – | – | – |
| COCCOCCOCc1ccc(/C=C(\C#N)C(=O)Nc2ccc(F)cc2)o1 [JK-06A, 2-cyano-N-(4-fluorophenyl)-3-[5-(2,5,8-trioxa-nonyl-1-yl)furan-2-yl]-2-acrylamide] | 67 | significant anti-senile dementia effects | – | more significant anti-senile dementia effects | – | No death, |
| CC(/C=C/C=C(\C)C(=O)O)=C\C=C\C=C(C)\C=C\C=C(/C)C(=O)O [Crocetin, reference compound] | 40 | equivalent anti-senile dementia effects | – | – | – | – |
| Cc1nc(Nc2ncc(C(=O)Nc3c(C)cccc3Cl)s2)cc(N2CCN(CCO)CC2)n1 [Dasatinib, reference compound] | 56 | – | – | – | – | – |
| N#C/C(=C\c1ccc(CO)o1)C(=O)NCCc1c[nH]c2ccccc12 [JK-03A, 2-cyano-N-[2-(1H-indol-3-yl)ethyl]-3-(5-hydroxymethyl-2-furyl)-2-acrylamide] | 56 | significant anti-senile dementia effects | – | more significant anti-senile dementia effects | – | No death, |

— patent US9834530B2, “3-furyl-2-cyano-2-acrylamide derivative, preparation method therefor, pharmaceutical composition and use thereof” (JENKEM TECHNOLOGY CO., LTD. (BEIJING), priority 2013, dated 2017)
